Here are results for two molecules from patent US5384119A, “Method of preventing neutrophil mediated connective tissue damage” (Merrell Dow Pharmaceuticals Inc., priority 1993, dated 1995).

Like-named read-outs stand apart in the source and are kept apart here.

Data set [1] concerns the target T1, cathepsin G (Homo sapiens, UniProt P08311).
T1 construct: Both purified human neutrophil elastase and cathepsin G degrade CPG; from tissue; host or cells: human neutrophils
T1 sequence (P08311 21-244 limits assumed): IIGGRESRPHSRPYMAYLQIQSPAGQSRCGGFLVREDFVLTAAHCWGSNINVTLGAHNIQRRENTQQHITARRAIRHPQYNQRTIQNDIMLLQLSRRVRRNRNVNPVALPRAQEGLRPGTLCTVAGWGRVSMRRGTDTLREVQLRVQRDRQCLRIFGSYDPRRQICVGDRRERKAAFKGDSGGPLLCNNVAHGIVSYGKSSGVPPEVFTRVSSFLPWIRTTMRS
Description: Cathepsin G mediated degradation of 35S-labeled cartilage matrix proteoglycan (CPG). Type of data set: biochemical. Particulars: cartilage discs, 4 hours at 37° C., FIG. 4. As for the experimental part:
(§1) Fresh bovine nasal septa were obtained from a local abattoir and 4 mm cartilage cylinders were prepared using a No. 2 cork borer. The cylinders were sliced into 1 mm discs. The top and bottom discs were discarded and the remaining cartilage discs were pooled, washed three times in HBSS and resuspended in Dulbecco's Modified Eagles Medium (DMEM) with antibiotics and supplements. The sulfated sugars that constitute the glycosaminoglycan side chains of cartilage proteoglycan were radiolabeled by the addition of 10 μCi/ml of Na2^35 SO4 followed by incubation overnight at 37° C. with gentle rocking. […]
(§2) The ability of neutrophil proteases to degrade connective tissue matrix was measured by incubating ^35 S-radiolabeled cartilage discs with neutrophil lysate, purified elastase or cathepsin G in serumless media for 4 hours at 37° C. and collecting the supernatants and counting the radiolabeled material in the supernatants and discs. The radioactivity remaining in the cartilage discs after removal of the supernatant was assayed by completely digesting the discs in 6M HCl at 100° C. for 1 hour, removing the HCl by vacuum evaporation and resuspending the dried material in 0.5 ml HBSS. Supernatants and processed discs were counted in a Beckman LS 3801 scintillation counter. The data were expressed as the percent at ^35 S label released into the supernatant. […]

Data set [2] addresses T1, cathepsin G. Description: Cathepsin G cleavage of synthetic substrate N-succinyl-Ala-Pro-Phe-p-nitroanalide. Particulars: 2 micrograms of cathepsin G, FIG. 2, read-out: IC50 for the inhibition of cathepsin G. Type of data set: biochemical. As for the experimental part:
(§3) Elastase activity is assayed using the specific substrate, N-methoxysuccinyl-Ala-Ala-Pro-Val-p-nitroanalide, and cathepsin G activity was measured using N-succinyl-Ala-Pro-Phe-p-nitroanalide. The assay buffer, 0.1M HEPES with 0.5M NaCl and 0.1% Brij-35, is used to dilute the elastase substrate to a final concentration of 0.2 mM and the cathepsin G substrate to 1 mM. The appropriate substrate in 2 ml of assay buffer is incubated at 37° C. in a heated spectrophotometer cell and the reaction is started by the addition of enzyme. In experiments where inhibitors were tested, the inhibitors were incubated with the enzyme for 5 min before the addition of substrate. […] was continuously monitored at 410 nm using a diode array spectrophotometer. Kinetic constants were determined using the kinetics software of the spectrophotometer.
(§4) The ability of several sulfated polymers to inhibit elastase and cathepsin G degradation of their respective substrates was examined. MDL-101,028, a compound falling within the scope of the claimed invention, where the value of n is 6, and 4,4'-Diisothiocyanatostilbene-2,2'-disulfonic acid, internally identified as MDL-101,114 (DIDS) inhibited both elastase and cathepsin G in a dose-dependent manner.

Another data set has as its target T2, elastase (Homo sapiens, UniProt P08246).
T2 sequence (P08246 30-247 limits assumed): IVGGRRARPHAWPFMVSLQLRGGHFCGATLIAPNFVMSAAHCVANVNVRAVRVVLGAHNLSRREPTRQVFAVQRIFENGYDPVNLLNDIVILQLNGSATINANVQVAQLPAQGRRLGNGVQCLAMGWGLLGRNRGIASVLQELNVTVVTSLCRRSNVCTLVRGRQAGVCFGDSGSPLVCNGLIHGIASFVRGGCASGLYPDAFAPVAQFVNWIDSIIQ
Description: Elastase cleavage of synthetic substrate N-methoxysuccinyl-Ala-Ala-Pro-Val-p-nitroanalide. The data set is classed as biochemical. Particulars: 2 μg of elastase, FIG. 1, read-out: IC50 for the inhibition of elastase. The procedure: as §3, §4

In data set [3] the target is T3, purified human neutrophil elastase (Homo sapiens, UniProt P08246).
T3 construct: Both purified human neutrophil elastase and cathepsin G degrade CPG; from tissue; host or cells: human neutrophils
T3 sequence (P08246 30-247 limits assumed): T2 sequence (P08246 30-247 limits assumed)
Description: Elastase mediated degradation of 35S-labeled cartilage matrix proteoglycan (CPG). Type of data set: biochemical. Conditions: cartilage discs, 4 hours at 37° C., FIG. 3. The procedure:
as §1, §2

Data set [4] has as its system Human neutrophils. Description: Neutrophil viability (trypan blue exclusion, lactic dehydrogenase release). Type of data set: cell-based. As for the experimental part:
(§5) Radiolabeled cartilage discs were placed into the wells of 96-well microtiter plates and overlayed with human neutrophils suspended in DMEM containing 10% FCS. The neutrophils were stimulated by the addition of 1 mg/ml of opsonized zymosan and incubated for 4 hours at 37° C. with 5% CO2. Connective tissue matrix degradation was quantitated by the amount of radiolabel released. In experiments using protease inhibitors, the inhibitors were added immediately after the neutrophils. The viability of the neutrophils incubated with the protease inhibitors was determined by assaying the supernatants for lactic dehydrogenase (LDH) and by neutrophil exclusion of trypan blue. In addition, the effect of protease inhibitors on primary granule enzyme secretion was monitored by measuring the release of myeloperoxidase.
(§6) The percentage of neutrophils stimulated with zymosan in media for 4 hours that excluded trypan blue was 85% compared to 77%-87% for neutrophils incubated with MDL-101,028 at doses of 4, 10, and 25 μM, respectively. This correlated with LDH release which was 9% for stimulated neutrophils treated with media, compared to 7-11% for neutrophils incubated with MDL-101,028 at concentrations of 4-25 μM.

Data set [5] concerns human neutrophil elastase. As to the kind of experiment: Elastase induced pulmonary hemorrhage in rats. The data set is classed as in vivo, Male Sprague Dawley rats. Particulars: rat; for Inhibition of lung hemorrhage (hemoglobin in lavage fluid): 100 μg elastase, FIG. 7; for Inhibition of lung hemorrhage: intratracheal, FIG. 8. As for the experimental part:
Male Sprague Dawley rats were anesthetized with chloral hydrate (300 mg/kg) and either saline or human neutrophil elastase was administered intratracheally. Briefly, rats were placed on a surgical board, ventral side up, and their mouths held open using a rubber band placed over their incisors. The tongue was held to the side and 100 micro liters of elastase solution (1 mg/ml) was administered into the trachea with the aid of a bright light source and a 3 inch, 22 gauge blunt-end needle. One hour after elastase administration, the rats were sacrificed using CO2 and the trachea was surgically exposed and cannulated. The lungs were lavaged with 10 ml of saline and the hemoglobin content was-determined using the cyanmethemoglobin assay. In experiments where inhibitors were tested, the compounds were given intratracheally in 100 μl of saline at various times before elastase administration.
Intratracheal instillation of human leukocyte elastase produced acute lung injury as assessed by hemorrhage (FIG. 7). The hemorrhage was quantified by measuring the hemoglobin content of the pulmonary lavage fluid. […] When MDL-101,028 was administered intratracheally immediately before elastase (within 30 seconds) at doses of 280 μg, 700 μg, or 2800 μg, lung hemorrhage was inhibited by 48%, 90%, and 90% respectively (FIG. 7).
MDL-101,028 was administered to rats at various time intervals before instillation of elastase to determine the duration of action.

Data set [6] has as its system Human neutrophils. As to the kind of experiment: Primary granule enzyme secretion (myeloperoxidase release) from neutrophils. Particulars: stimulated neutrophils. Type of data set: cell-based. As for the experimental part:
as §5, §6

Another data set concerns Human neutrophil lysate. As to the kind of experiment: Human neutrophil lysate mediated degradation of CPG. The data set is classed as biochemical. Conditions: lysate 1:100, 4 hour at 37° C., FIG. 5. As for the experimental part: Human neutrophil granule lysates were prepared by resuspending 2.5×10^8 in 4 ml of […] sucrose and sonicating for 30 seconds using a microtip probe. […] The neutrophil lysate was centrifuged at 1000×g for 10 min. at 4° C., the supernatant was collected and centrifuged at 30,000×g for 30 min. at 4° C. and the pellet containing neutrophil granules was resuspended in 2 ml of 0.05M sodium acetate buffer, pH 5.5, containing 1M NaCl and 0.1% Brij-35 and kept on ice for 30 min. with several brief sonications of approximately 30 seconds during the incubation period. […] The granule lysate was centrifuged at 30,000×g for 30 min. at 4° C. and the supernatant was collected, tested for elastase and cathepsin G content using synthetic substrates as described above, aliquoted and stored at […] until used.
Fresh bovine nasal septa were obtained from a local abattoir and 4 mm cartilage cylinders were prepared using a No. 2 cork borer. The cylinders were sliced into 1 mm discs. The top and bottom discs were discarded and the remaining cartilage discs were pooled, washed three times in HBSS and resuspended in Dulbecco's Modified Eagles Medium (DMEM) with antibiotics and supplements. […]
as §2

A word on the IC50: it is the midpoint of a concentration-inhibition curve. On to `O=S(=O)(O)c1cc(N=C=S)ccc1C=Cc1ccc(N=C=S)cc1S(=O)(=O)O` [DIDS, 4,4'-Diisothiocyanatostilbene-2,2'-disulfonic acid, reference compound], for which the IC50 at cathepsin G [1] (read-out: IC50, cathepsin G mediated cartilage degradation) was found to be 50 µM; on cathepsin G [2], 1.4 µM; at elastase, 1.1 µM; in data set [3] (read-out: IC50, elastase mediated cartilage degradation) it was 38 µM.
For the molecule `Cc1ccc(NC(=O)Nc2ccc(-c3ccc(NC(=O)Nc4ccc(-c5ccc(NC(=O)Nc6ccc(-c7ccc(NC(=O)Nc8ccc(-c9ccc(NC(=O)Nc%10ccc(-c%11ccc(NC(=O)Nc%12ccc(-c%13ccc(NC(=O)Nc%14ccc(C)cc%14)cc%13S(=O)(=O)O)c(S(=O)(=O)O)c%12)cc%11S(=O)(=O)O)c(S(=O)(=O)O)c%10)cc9S(=O)(=O)O)c(S(=O)(=O)O)c8)cc7S(=O)(=O)O)c(S(=O)(=O)O)c6)cc5S(=O)(=O)O)c(S(=O)(=O)O)c4)cc3S(=O)(=O)O)c(S(=O)(=O)O)c2)cc1` [MDL-101,028], the LDH release with Human neutrophils [4] (concentrations of 4-25 μM, stimulated neutrophils (media control 9%), 240 min) is listed as 7-11%. The “Percentage of neutrophils that excluded trypan blue” value in the data set on Human neutrophils [4] (doses of 4, 10, and 25 μM, zymosan stimulated, 4 hours (media control 85%)) is recorded as 77%-87%. In the data set with Human neutrophils [4] (trypan blue exclusion and lactic dehydrogenase release), the “Viability of the neutrophils” value is on record as “not diminished”. The IC50 was roughly 9 µM on cathepsin G [1] (read-out: IC50, cathepsin G mediated CPG degradation); 0.08 µM on cathepsin G [2]; 0.04 µM on elastase; roughly 8 µM in data set [3] (read-out: IC50, elastase mediated CPG degradation). The “Inhibition of lung hemorrhage (hemoglobin in lavage fluid)” value in data set [5] (280 μg intratracheally immediately before elastase (within 30 seconds)) worked out at 48%; in data set [5] (700 μg intratracheally immediately before elastase (within 30 seconds)) it was 90%; in data set [5] (2800 μg intratracheally immediately before elastase (within 30 seconds)), 90%. For the same molecule, the “Inhibition of lung hemorrhage” value in data set [5] (administered 1 hour before elastase) stood at 61%; in data set [5] (administered 2 hours before elastase), 63%; in data set [5] (administered 4 hours before elastase), 20%. Further, the Duration of action result in data set [5] (intratracheal route) is “greater than two hours and less than four hours”. Further, the “Myeloperoxidase release from neutrophils” value with Human neutrophils [6] is given as “not inhibited”. Besides, the figures for the “Inhibition of CPG degradation by neutrophil lysate” value with Human neutrophil lysate (4 μmolar), in the data set with Human neutrophil lysate (10 μmolar) and in the data set on Human neutrophil lysate (25 μmolar) were 54%, 70% and 79%, respectively.
